Experimental data reported in patent publication US8759504B2, “Cholinergic/serotoninergic receptor and uses thereof” (AbbVie Inc., priority 2007, dated 2014).
“Also recorded” adds a separate entry of the source. Where two headings read alike, the source gives them in different places. Marks after values point to notes of the source that are not given here.

How the values were obtained:
[1] = target: T1, wild-type α7 nicotinic acetylcholine receptor (Homo sapiens, UniProt P36544); experiment: Two electrode voltage clamp in Xenopus oocytes, agonist and modulator responses; type: cell-based; conditions: for Percentage potentiation of submaximum agonist-evoked responses (mean±S.E.M.): 100 μM ACh
T1 construct: expressed in transfected cells; host or cells: Xenopus laevis oocytes

[2] = target: T2, wild-type human 5-HT3A receptors (Homo sapiens, UniProt P46098); experiment: as above; type: cell-based; conditions: for Percentage potentiation of submaximum agonist-evoked responses (mean±S.E.M.): 1-3 μM 5-HT
T2 construct: expressed in transfected cells; host or cells: Xenopus laevis oocytes
T2 sequence (P46098 1-484 isoform P46098-4): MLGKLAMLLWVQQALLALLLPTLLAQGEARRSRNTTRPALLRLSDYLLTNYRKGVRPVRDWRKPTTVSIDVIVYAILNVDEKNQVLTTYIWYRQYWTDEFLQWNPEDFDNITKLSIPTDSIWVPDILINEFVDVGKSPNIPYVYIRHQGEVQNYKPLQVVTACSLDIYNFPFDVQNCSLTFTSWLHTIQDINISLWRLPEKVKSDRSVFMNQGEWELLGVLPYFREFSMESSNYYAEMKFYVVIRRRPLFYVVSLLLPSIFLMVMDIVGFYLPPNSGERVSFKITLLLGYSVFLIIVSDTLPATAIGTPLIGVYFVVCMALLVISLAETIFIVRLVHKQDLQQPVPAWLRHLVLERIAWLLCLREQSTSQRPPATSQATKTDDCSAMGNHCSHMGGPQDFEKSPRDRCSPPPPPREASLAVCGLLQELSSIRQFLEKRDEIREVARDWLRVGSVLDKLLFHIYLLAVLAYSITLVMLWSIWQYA

[3] = target: T3, rat brain α7* nicotinic acetylcholine receptors (Rattus norvegicus, UniProt Q05941); experiment: [3H]A-585539 radioligand binding, rat brain homogenates; conditions: for Competition / displacement of [3H]A-585539 binding: rat cortex, increasing concentrations
T3 construct: expressed both as a native (rat cortex) or α7/5-HT3 chimeric receptor; from tissue; host or cells: rat brain / rat cortex homogenates

Chimera 1 [4] = target: T4, Chimera 1 (Homo sapiens, UniProt P36544, M226I/T225V); experiment: Membrane potential imaging (FLIPR-FMP) in HEK-293 cells; type: cell-based; set-up: expressed in transfected cells; conditions: for Modulation of submaximum agonist-evoked membrane potential response (words): HEK-293 cells, FMP; for Maximum positive allosteric modulation efficacy: submaximum NS6784 120-200 nM
Chimera 2 [5] = target: T5, Chimera 2 (Homo sapiens, UniProt P36544, M226I/T225V); experiment: as above; type: cell-based; set-up: expressed in transfected cells; conditions: for Modulation of submaximum agonist-evoked membrane potential response (words): HEK-293 cells, FMP; for EC50: read-out: FMP imaging: positive allosteric modulation EC50 (95% C.I.), submaximum NS6784 (60-70 nM); for Maximum positive allosteric modulation efficacy: submaximum NS6784 60-70 nM
Chimera 2 [6] = target: T5, Chimera 2; experiment: [3H]A-585539 radioligand binding, HEK-293 membranes/homogenates; set-up: expressed in transfected cells; conditions: for Competition / displacement of [3H]A-585539 binding: increasing concentrations
Chimera 2 [7] = target: T5, Chimera 2; experiment: Whole cell patch clamp in HEK-293 cells; type: cell-based; set-up: expressed in transfected cells; conditions: for Direct current activation by modulator alone: genistein 100 μM, 5-HI 10 mM; for Positive allosteric modulation of ACh-evoked current: genistein 30-50 μM, 5-HI 1 mM
Chimera 1 [8] = target: T4, Chimera 1; experiment: Two electrode voltage clamp in Xenopus oocytes (POETs), agonist and modulator responses; type: cell-based; set-up: expressed in transfected cells; host or cells: Xenopus laevis oocytes (transient, A1); conditions: for Percentage potentiation of submaximum agonist-evoked responses (mean±S.E.M.): 100 μM ACh
Chimera 2 [9] = target: T5, Chimera 2; experiment: as above; type: cell-based; set-up: expressed in transfected cells; host or cells: Xenopus laevis oocytes (transient, A2); conditions: for Percentage potentiation of submaximum agonist-evoked responses (mean±S.E.M.): 10-30 μM ACh; for EC50: read-out: Positive allosteric modulation potency, two electrode voltage clamp: EC50 (95% C.I.)
[10] = Positive allosteric modulation potency, two electrode voltage clamp: EC50 (95% C.I.), submaximum ACh (100 μM)-evoked response

T4 sequence (P36544 with tags, fused parts or gaps T225V/M226I): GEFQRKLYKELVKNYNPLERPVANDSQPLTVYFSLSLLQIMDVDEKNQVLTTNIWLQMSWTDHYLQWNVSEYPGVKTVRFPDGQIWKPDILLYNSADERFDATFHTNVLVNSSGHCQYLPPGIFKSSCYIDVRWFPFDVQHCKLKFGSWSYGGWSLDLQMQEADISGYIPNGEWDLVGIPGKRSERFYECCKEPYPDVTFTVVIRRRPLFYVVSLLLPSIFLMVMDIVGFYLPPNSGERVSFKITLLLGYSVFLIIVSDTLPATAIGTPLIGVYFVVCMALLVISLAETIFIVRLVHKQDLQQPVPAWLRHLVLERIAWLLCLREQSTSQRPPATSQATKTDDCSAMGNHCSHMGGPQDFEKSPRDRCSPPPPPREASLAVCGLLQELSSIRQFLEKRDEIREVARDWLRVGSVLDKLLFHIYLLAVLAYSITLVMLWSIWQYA
T5 sequence (P36544 with tags, fused parts or gaps T225V/M226I): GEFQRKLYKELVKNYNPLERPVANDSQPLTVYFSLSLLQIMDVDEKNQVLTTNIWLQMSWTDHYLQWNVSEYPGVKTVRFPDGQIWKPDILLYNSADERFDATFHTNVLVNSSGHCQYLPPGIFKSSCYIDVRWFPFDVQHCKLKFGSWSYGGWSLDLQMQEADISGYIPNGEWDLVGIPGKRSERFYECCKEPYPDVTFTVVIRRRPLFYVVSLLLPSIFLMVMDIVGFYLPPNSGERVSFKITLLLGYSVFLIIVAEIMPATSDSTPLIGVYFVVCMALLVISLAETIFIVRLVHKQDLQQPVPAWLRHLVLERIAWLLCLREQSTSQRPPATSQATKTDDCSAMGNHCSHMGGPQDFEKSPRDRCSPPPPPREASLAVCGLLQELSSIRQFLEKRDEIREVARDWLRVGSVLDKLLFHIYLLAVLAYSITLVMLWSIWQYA
T1 sequence (P36544 23-502): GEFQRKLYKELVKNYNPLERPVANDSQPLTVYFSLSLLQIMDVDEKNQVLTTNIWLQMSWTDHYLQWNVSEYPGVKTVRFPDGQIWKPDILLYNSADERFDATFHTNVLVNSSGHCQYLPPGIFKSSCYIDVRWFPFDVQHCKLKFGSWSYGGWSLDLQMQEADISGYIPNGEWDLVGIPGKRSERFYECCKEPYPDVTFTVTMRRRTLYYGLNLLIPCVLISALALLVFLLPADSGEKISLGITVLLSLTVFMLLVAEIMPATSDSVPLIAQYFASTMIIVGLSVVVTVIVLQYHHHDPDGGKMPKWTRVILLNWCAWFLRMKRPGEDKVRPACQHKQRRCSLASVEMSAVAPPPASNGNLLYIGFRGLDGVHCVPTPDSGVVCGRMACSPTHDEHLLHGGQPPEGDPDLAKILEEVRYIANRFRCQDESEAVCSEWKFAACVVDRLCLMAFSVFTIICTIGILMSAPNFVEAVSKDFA
T3 sequence (Q05941 23-502): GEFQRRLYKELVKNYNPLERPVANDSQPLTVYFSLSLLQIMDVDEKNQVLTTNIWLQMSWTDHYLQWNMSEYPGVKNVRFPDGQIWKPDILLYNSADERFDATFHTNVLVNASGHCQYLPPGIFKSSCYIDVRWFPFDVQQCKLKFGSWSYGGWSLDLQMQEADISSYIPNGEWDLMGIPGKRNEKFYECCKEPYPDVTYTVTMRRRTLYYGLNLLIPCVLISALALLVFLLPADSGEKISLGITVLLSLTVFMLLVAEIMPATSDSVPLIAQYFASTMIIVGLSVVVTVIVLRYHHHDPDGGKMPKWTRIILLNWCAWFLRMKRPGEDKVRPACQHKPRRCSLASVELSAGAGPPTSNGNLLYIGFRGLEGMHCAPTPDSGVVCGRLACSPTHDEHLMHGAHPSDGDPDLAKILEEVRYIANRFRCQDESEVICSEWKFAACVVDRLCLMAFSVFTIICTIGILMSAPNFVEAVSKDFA

| SMILES | Percentage potentiation of submaximum agonist-evoked responses (mean±S.E.M.) [1] [%] | EC50 [1, 10] [µM] | Effect of modulator on ACh-evoked current (words) ([1]; Xenopus oocytes) | Percentage potentiation of submaximum agonist-evoked responses (mean±S.E.M.) [2] [%] | Effect of modulator on agonist (5-HT)-evoked current ([2]; Xenopus oocytes) | Competition / displacement of [3H]A-585539 binding [3] | Modulation of submaximum agonist-evoked membrane potential response (words) (Chimera 1 [4]) | Maximum positive allosteric modulation efficacy (Chimera 1 [4]) [%] | Modulation of submaximum agonist-evoked membrane potential response (words) (Chimera 2 [5]) | EC50 (Chimera 2 [5]) [µM] | Maximum positive allosteric modulation efficacy (Chimera 2 [5]) [%] | Competition / displacement of [3H]A-585539 binding (Chimera 2 [6]) | Direct current activation by modulator alone (Chimera 2 [7]) | Positive allosteric modulation of ACh-evoked current (Chimera 2 [7]) | Percentage potentiation of submaximum agonist-evoked responses (mean±S.E.M.) (Chimera 1 [8]) [%] | Percentage potentiation of submaximum agonist-evoked responses (mean±S.E.M.) (Chimera 2 [9]) [%] | Direct current activation by modulator alone (Chimera 2 [9]; Xenopus oocytes) | further results |
| --- | --- | --- | --- | --- | --- | --- | --- | --- | --- | --- | --- | --- | --- | --- | --- | --- | --- | --- |
| Oc1ccc2[nH]ccc2c1 [5-HI, 5-hydroxyindole] | 516±59 | 500 to 700 | substantial increase in the amplitude of the subsequent ACh-evoked current | 58±9 | Neither compound increased the responses | neither compound effectively displaced the binding | potentiated the submaximum α7 agonist (NS6784) evoked membrane potential depolarization; also recorded: effective in both Chimeras | 204±9 | potentiated submaximum NS6784 evoked responses; also recorded: effective as positive allosteric modulators; also recorded: effective in both Chimeras | 324 | 177±8 | neither compound effectively displaced the binding | Qualitatively similar responses were also obtained | effective as positive allosteric modulators | 428±23 | 262±39 | could also evoke responses in Chimera 2; also recorded: evoked unique agonist-like current | EC50 [1]: 667 µM; ng of ACh curve after modulator ([1]; 1 mM 5-HI): 1.97 ± 0.84; inhibition at 10000 µM ([2]; at 10,000 μM (10 mM), read-out: Observed % inhibitory effect on submaximum 5-HT-evoked response): ~40%; Modulation of submaximum agonist-evoked membrane potential response (words) (Chimera 1 [4]; listed as 5-hydroxyindole): able to potentiate both Chimeras; EC50 (Chimera 1 [4]; read-out: FMP imaging: positive allosteric modulation EC50 (95% C.I.), submaximum NS6784 (120-200 nM)): 234 µM; Modulation of submaximum agonist-evoked membrane potential response (words) (Chimera 2 [5]; listed as 5-hydroxyindole): able to potentiate both Chimeras; Directly evoked peak response normalized to 100 μM ACh (Chimera 2 [7]; 10 mM): 26.4±7.1%; Directly evoked total charge (integral) normalized to 100 μM ACh (Chimera 2 [7]; 10 mM): 52.4±10.3%; ng of ACh curve after modulator (Chimera 1 [8]; 1 mM 5-HI): 1.4 ± 0.13; Effect of modulator on ACh-evoked current (words) (Chimera 1 [8]; Xenopus oocytes): positive modulation is still observed; EC50 (Chimera 1 [8]; read-out: Positive allosteric modulation potency, two electrode voltage clamp: EC50 (95% C.I.), submaximum ACh (100 μM)-evoked response): 500 µM; Peak current amplitude evoked by compound alone, normalized to 10 μM ACh (Chimera 2 [9]; 1 mM): 5.4+/−1.8%; ng of ACh curve after modulator (Chimera 2 [9]; 1 mM 5-HI): 1.35 ± 0.25; Peak current amplitude evoked by compound alone, normalized to 10 μM ACh (Chimera 2 [9]; 3 mM): 37.8+/−11.6%; EC50 (Chimera 2 [9]; submaximum ACh (10-30 μM)-evoked response): 496 µM |
| O=c1c(-c2ccc(O)cc2)coc2cc(O)cc(O)c12 [Genistein, genistein] | 246±17 | 10.6 | primarily increasing the current amplitude | 52±7 | Neither compound increased the responses | neither compound effectively displaced the binding | unable to do so | 14±3 | enhanced agonist-evoked depolarization | 4.3 | 221±30 | neither compound effectively displaced the binding | directly activated the Chimera 2 receptor current | effective as positive allosteric modulators | 65±27 | 234±19 | activated currents at 30 and 100 μM; also recorded: evoked unique agonist-like current | Direct current activation by modulator alone ([1]; Xenopus oocytes): did not activate currents; Fold increase of submaximum ACh-evoked currents ([1]; Xenopus oocytes): 2-3 fold; Direct current activation by modulator alone ([2]; Xenopus oocytes): did not activate currents; Observed % inhibitory effect on submaximum 5-HT-evoked response ([2]; at 30 μM): ~48%^a at 30; inhibition at 30 µM ([2]; at 30 μM, read-out: Observed % inhibitory effect on submaximum 5-HT-evoked response): ~50%; Effect on [3H]A-585539 saturation binding ([3]; 10 μM): did not alter the saturation profile; also recorded: did not alter the saturation binding; Modulation of submaximum agonist-evoked membrane potential response (words) (Chimera 1 [4]; listed as genistein): not effective as positive allosteric modulator; also recorded: inhibited Chimera 1; IC50 (Chimera 1 [4]; read-out: FMP imaging: IC50 (95% C.I.), inhibition of agonist-evoked response, submaximum NS6784): 23.3 µM; Modulation of submaximum agonist-evoked membrane potential response (words) (Chimera 2 [5]; listed as genestein): very effective; Modulation of submaximum agonist-evoked membrane potential response (words) (Chimera 2 [5]; listed as genistein): potentiated submaximum NS6784 evoked responses; also recorded: potentiated Chimera 2 receptors; Effect on [3H]A-585539 saturation binding (Chimera 2 [6]; 10 μM): did not alter the saturation profile; also recorded: did not alter the saturation binding; Directly evoked peak response normalized to 100 μM ACh (Chimera 2 [7]; 100 μM): 72.6±22.2%; Directly evoked total charge (integral) normalized to 100 μM ACh (Chimera 2 [7]; 100 μM): 162.5±5.3%; Direct current activation by modulator alone (Chimera 1 [8]; Xenopus oocytes): did not activate currents; inhibition at 100 µM (Chimera 1 [8]; read-out: Observed % inhibitory effect on submaximum ACh-evoked response): ~35%; Effect of modulator on ACh-evoked current (words) (Chimera 2 [9]; Xenopus oocytes): potentiated peak amplitude of ACh current responses; Fold increase of submaximum ACh-evoked currents (Chimera 2 [9]; Xenopus oocytes): 2-3 fold; Effect of modulator on ACh-evoked current (words) (Chimera 2 [9]; Xenopus oocytes, listed as genestein): potentiated ACh responses in Chimera 2; EC50 (Chimera 2 [9]): 5.2 µM |
